Where a SMILES comes first, the peptide text is derived from it. [ ]: non-standard residue; d: D form. The star is where a group is joined. Stearoyl = CCCCCCCCCCCCCCCCCC(=O)*; Nle = CCCC[C@H](N)C(=O)O
Experiments:
[1] = test system: U-87 cells; assay: U-87 colony formation in soft agar; format: cell-based; conditions: in vitro
Text: (§1) The effects of VIP receptor antagonists on glioblastoma cell lines were investigated.

[2] = test system: panel of 56 cancer cell lines; assay: NCI "compare analysis", panel of 56 cancer cell lines; format: cell-based
Text: The mean value±S. D. of 8 determinations is indicated; *, p<0.05 using student's t-test. (SN)VIPhyb inhibited the growth of leukemia (CCRF-CEM), HL-60(TB), K-562, MOLT-4, RPMI-8226, SR), non-small cell lung cancer (A549, EKVX, HOP-62, HOP-92, H23, H322M, H460 and H522), colon cancer (COLO205, HCC-2998, HCT-116, HT29, KM12, SW-620), CNS cancer (SF-268, SF-295, SF-539, SNB-19, U251), melanoma (LOX IMVI, MALME-3M, M14, SK-MEL-2, SK-MEL-28, SK-MEL-5, UACC-257, UACC-62), ovarian cancer (IGROV1, OVCAR-3, OVCAR-5, OVCAR-8, SK-OV-3), renal cancer (786-0, A498, CAKI-1, RXF 393, SM12C, TK-l0), prostate cancer (PC-3, DU-145) and breast cancer (MCF-7, MDA-MB-231, HS 578T, MDA-MB-435, MDA-N and T-47D).

[3] = test system: HT-29 human colon cancer; assay: MTS cell proliferation assay, SNH and chemotherapy; format: cell-based; conditions: HT-29, 4 hour treatment with SNH followed by a 24 hour treatment (FIG. 11)
Method: NCI-H727 and LNCaP were grown in RPMI 1640 medium supplemented with 10% heat inactivated FCS, L-glutamine and antibiotics. HT-29 and CT-26 were grown in DMEM medium supplemented with 10% heat-inactivated FCS (fetal calf serum), L-glutamine and antibiotics. The cells were cultured in 5% CO2/95% air at […] and used during their exponential growth phase. Routinely, the cells which are adherent, were split when a subconfluent monolayer was formed. In different experiments, various concentration of FCS were used. For growth inhibition experiments, subconfluent adherent cells were washed with PBS and treated with trypsin/versene. The cells were pelleted and resuspended in medium to a final concentration of 75,000 cells/mL for NCI-H727. 50,000 cells/mL for LNCaP and HT-29 and 25000 cells/mL for CT-26. These different concentrations were used in order to avoid confluence in the wells at the end of the experiment and correspond to the different doubling times of the cell lines. […] On day 4, viable cell number was determined by a modified MTT assay i.e., MTS non-radioactive cell proliferation assay (Promega). […] Results were finally expressed as percentage of the control, which was obtained from the samples with no drug treatment. Dose-response curves were plotted using a Sigma-Plot software and statistically analyzed using Student test. […] On day 4 the number of viable cells was determined by MTS assay.

[4] = test system: nonsmall cell lung cancer line; conditions: 2 mM of the antagonist
Method: Assays were performed with cell lines derived from colon cancer and prostate cancer. Proliferation was assessed using the MTS colorimetric assay of mitochondrial function for living cells. The VIP antagonist (stearyl-Nle17-neurotensis 6-11 VIP 7-28) was used.

[5] = test system: VIP receptor (glioblastoma cells); assay: cAMP in glioblastoma cells, basal and VIP-stimulated; format: cell-based
Text: as §1

[6] = test system: cancer cells; assay: MTS cell proliferation assay, inhibition of cell growth by SNH; format: cell-based
Text: For growth inhibition experiments, subconfluent adherent cells were washed with PBS and treated with trypsin/versene. The cells were pelleted and resuspended in medium to a final concentration of 75,000 cells/mL for NCI-H727. 50,000 cells/mL for LNCaP and HT-29 and 25000 cells/mL for CT-26. These different concentrations were used in order to avoid confluence in the wells at the end of the experiment and correspond to the different doubling times of the cell lines.
On day 0, cells suspensions […] were dispensed using a multi-channel pipet into the individual wells of a 96-well tissue culture plate (Nuncion, Nunc Brand Products). […] Cells were incubated for 24 hours in a humidified atmosphere of 95% air/5% CO2 at 37° C. before treatment. […]
On day 4, viable cell number was determined by a modified MTT assay i.e., MTS non-radioactive cell proliferation assay (Promega). Briefly, […] of freshly prepared MTS/PMS solution was added to each individual well and after 1-3 hours of incubation (the optimal time was determined for each cell line) absorbance at 490 nm was measured using a multiscan plate reader. Results were finally expressed as percentage of the control, which was obtained from the samples with no drug treatment. Dose-response curves were plotted using a Sigma-Plot software and statistically analyzed using Student test. […]

[7] = test system: glioblastoma cell lines; assay: MTT assay, glioblastoma proliferation; format: cell-based
Text: as §1

## CCCCCCCCCCCCCCCCCC(=O)N[C@@H](CCCCN)C(=O)N1CCC[C@H]1C(=O)N[C@@H](CCCNC(=N)N)C(=O)N[C@@H](CCCNC(=N)N)C(=O)N1CCC[C@H]1C(=O)N[C@@H](Cc1ccc(O)cc1)C(=O)N[C@H](C(=O)N[C@@H](CC(=O)O)C(=O)N[C@@H](CC(N)=O)C(=O)N[C@@H](Cc1ccc(O)cc1)C(=O)N[C@H](C(=O)N[C@@H](CCCNC(=N)N)C(=O)N[C@@H](CC(C)C)C(=O)N[C@@H](CCCNC(=N)N)C(=O)N[C@@H](CCCCN)C(=O)N[C@@H](CCC(N)=O)C(=O)N[C@@H](CCCC)C(=O)N[C@@H](C)C(=O)N[C@H](C(=O)N[C@@H](CCCCN)C(=O)N[C@@H](CCCCN)C(=O)N[C@@H](Cc1ccc(O)cc1)C(=O)N[C@@H](CC(C)C)C(=O)N[C@@H](CC(N)=O)C(=O)N[C@@H](CO)C(=O)N[C@H](C(=O)N[C@@H](CC(C)C)C(=O)N[C@@H](CC(N)=O)C(N)=O)[C@@H](C)CC)C(C)C)[C@@H](C)O)[C@@H](C)O [SNH] (Stearoyl-KPRRPYTDNYTRLRKQ[Nle]AVKKYLNSILN-NH2)
[1]
  relative potency at inhibiting U-87 colony formation: more potent than VIP hybrid
[2]; CNS cancer
  cell lines significantly inhibited: 5/5
[2]; all cell lines tested
  cell lines whose proliferation was significantly inhibited: 51 of 56
[2]; breast cancer
  cell lines significantly inhibited: 6/8
[2]; colon cancer
  cell lines significantly inhibited: 6/7
[2]; leukemia
  cell lines significantly inhibited: 6/6
[2]; melanoma
  cell lines significantly inhibited: 8/8
[2]; non-small cell lung cancer
  cell lines significantly inhibited: 7/7
[2]; ovarian cancer
  cell lines significantly inhibited: 5/6
[2]; prostate cancer
  cell lines significantly inhibited: 2/2
[2]; renal cancer
  cell lines significantly inhibited: 6/7
[3]
  effect of the combination with a different schedule: also effective
[4]
  growth inhibition: 15-20%
[5]; 10 nM VIP
  order of peptide potency, inhibition of VIP-stimulated cAMP: (SN)VIPhybrid>VIP hybrid >PTC4495
[5]; 1 μM
  effect on basal cAMP: no effect
[5]; 1 μM, 10 nM VIP
  inhibition of the increase in cAMP caused by 10 nM VIP: strongly inhibited
[6]; 10 mM of SNH
  inhibition of the growth of cancer cells: significantly inhibits
[6]; 8-10 mM SNH, FCS lower than 2%
  death of the cancer cells: complete or almost complete death
[7]; 1 μM
  effect on basal proliferation: little effect
[7]; 1 μM (SN)VIPhybrid with Taxol
  interaction with Taxol to inhibit growth: synergistically interacted
